In one data set the test system is full-length HEV p6 clone. Nature of the data set: Full-length p6 clone, ORF2 immunofluorescence in Huh7.5. The class given is cell-based, Hepatitis E virus. The note with it: silvestrol 10 nM or RBV, 42 h, added 4 h after transfection.
Data set [1] has as its system HEV Sar55/S17 replicon (gt1). Nature of the data set: HEV Sar55/S17 subgenomic replicon replication in Huh7.5.
Data set [2] concerns HCV JFH1 subgenomic replicon. Description: HCV JFH1 subgenomic replicon replication in Huh7.5. The note with it: for IC50 / IC90: Hepatitis C virus; for IC50: read-out: IC50 (CI); for IC90: read-out: IC90 (CI).
The test system of the next data set is different HEV constructs. Nature of the data set: Different HEV subgenomic replicons in Huh7.5. The note with it: Hepatitis E virus.
For data set [3], the system named is HEVp6 replicon (Kernow-C1 p6, gt3). Description: HEVp6 subgenomic replicon. The note with it: for IC90: read-out: IC90 (CI).
Data set [4] in a line: MTT cell viability assay in transfected Huh7.5. The note with it: human, transfected Huh7.5 cells, CC50 (CI), 42 h treatment, Huh7.5, CI 95%. The class given is cell-based, human.
For data set [5], the system named is Huh7.5 cells. Description: MTT cell viability assay in transfected Huh7.5. The class given is cell-based, human.
The test system of data set [6] is Huh7.5 cells. Nature of the data set: Trypan blue exclusion viable cell counting. The class given is cell-based, human. The note with it: silvestrol 10 nM and 100 nM, 24 h, vs untreated cells.
A further data set deals with HepG2/C3A cells. Description: MTT cell viability in HEVCC infection assay. The format is cell-based, human. The note with it: silvestrol 10, 20, 50 nM, all treatment setups.
The subject of data set [7] is hepatocyte-like cells (HLCs). Description: WST cell viability in hepatocyte-like cells. The class given is cell-based, human. The note with it: 10 nM silvestrol for 24 h.
The next data set relates to gt1 HEV (strain Sar-55). The class given is in vivo. The settings on record: 0.3 mg/kg daily intraperitoneal, ten or six days, first days of treatment.
For data set [8] the following is noted: 0.3 mg/kg daily intraperitoneal, monitored period.
In the next data set the test system is Ebola virus. The settings on record: read-out: IC50 Ebola virus replication; cited from earlier work.
Setting [9] is: Hepatitis E virus, GT1, Huh7.5, 24 h, read-out: IC50 (CI), 24 h treatment, Huh7.5, CI 95%.
Setting [10] is: Hepatitis E virus, GT1, Huh7.5, 42 h, read-out: IC50 (CI), 42 h treatment, Huh7.5, CI 95%.
Setting [11] is: Hepatitis E virus, GT3, Huh7.5, 24 h, read-out: IC50 (CI), 24 h treatment, Huh7.5, CI 95%.
Where [12] appears, read: Hepatitis E virus, GT3, Huh7.5, 24 h.
[13] abbreviates: Hepatitis E virus, GT3, Huh7.5, 42 h, read-out: IC50 (CI), 42 h treatment, Huh7.5, CI 95%.
Where [14] appears, read: Hepatitis E virus, GT3, Huh7.5, 42 h.

Where two headings read alike, the source gives them in different places. Some results are limits rather than exact numbers.

We go through two compounds from publication PMC7113770 (Antiviral Research, 2018).

For `NC(=O)c1ncn([C@@H]2O[C@H](CO)[C@@H](O)[C@H]2O)n1` [Ribavirin], the “ORF2 positive cells (immunofluorescence)” value in the data set on full-length HEV p6 clone was “highly reduced”. Further, the IC50 in data set [1] (setting [9]) is 43000 nM; in data set [1] (setting [10]), 30300 nM; in [1] (read-out: IC50 (CI), 24 h treatment, Huh7.5, CI 95%), 43100 nM; in data set [2] (Huh7.5, 24 h) it was 12300 nM; in data set [2] (Huh7.5, 42 h), 62500 nM; in the data set with different HEV constructs (GT1, Huh7.5, 24 h, read-out: IC50 HEV replication) it was 8000 to 12000 nM. The IC50 in [3] (setting [11]) came out at 8160 nM; in data set [3] (setting [13]) it was 6900 nM. For the same compound, the IC90 in data set [2] (Huh7.5, 24 h) came out at 128000 nM; in data set [3] (setting [12]), 244000 nM; in data set [3] (setting [14]), 50400 nM.
In data set [4], `COC(=O)[C@H]1[C@@H](O)[C@@]2(O)c3c(OC)cc(O[C@@H]4O[C@@H]([C@H](O)CO)CO[C@H]4OC)cc3O[C@@]2(c2ccc(OC)cc2)[C@@H]1c1ccccc1` [Silvestrol, silvestrol] registered a CC50 at 42 h of 24.8 nM. Also, the “cytotoxic concentration 50 (CC50)” value in the data set on Huh7.5 cells [5] (24 h treatment, Huh7.5) is “did not reach a cytotoxic concentration 50 (CC50)”. Further, the CC50 in the data set on Huh7.5 cells [5] (read-out: CC50 (CI), 42 h treatment, Huh7.5, CI 95%) is 24.8 nM. The “viable cells (trypan blue cell counting)” value in the data set on Huh7.5 cells [6] is recorded as “no significant reductions”. The “ORF2 positive cells (immunofluorescence)” value with full-length HEV p6 clone was “highly reduced”. Also, the “cell viability (MTT)” value with HepG2/C3A cells is on record as “not reduced”. Also, in [7], the “cytotoxicity (WST assay) in HLCs” value is given as “without cytotoxicity”. In addition, in the data set with gt1 HEV (strain Sar-55), the “HEV RNA in the feces” value was “rapid decline”. In data set [8], the body weight result is “No changes”. Also, the IC50 with Ebola virus is below 1 nM; in data set [1] (setting [9]), 6.65 nM; in data set [1] (setting [10]) it was 3.17 nM; in data set [2] (Huh7.5, 24 h), 24.3 nM; in data set [2] (Huh7.5, 42 h) it was 71.1 nM; in the data set with different HEV constructs (Huh7.5, 24 h, read-out: IC50 for the different HEV constructs), 4 to 6.6 nM. Moreover, the IC50 in [3] (setting [11]) is 4.43 nM; in [3] (setting [13]), 2.9 nM; in [3] (read-out: IC50 (CI), 42 h treatment, Huh7.5, CI 95%) it was 2.87 nM. Moreover, the IC90 was determined as 52.8 nM in data set [1] (Hepatitis E virus, GT1, Huh7.5, 42 h, read-out: IC90 (CI)); 128 nM in data set [2] (Huh7.5, 24 h); 518 nM in data set [2] (Huh7.5, 42 h); 64.7 nM in data set [3] (setting [12]); 27.3 nM in data set [3] (setting [14]). Further, the “susceptibility of HCV reference replicon compared with HEV” value in [2] (Huh7.5, 24 h) is given as “less susceptible”. In [3] (42 h, p6 strain, CC50/IC50), the selectivity index result is on record as “about 8.6”.
